# From US20180162845A1, “ENHANCER OF ZESTE HOMOLOG 2 INHIBITORS” (GLAXOSMITHKLINE INTELLECTUAL PROPERTY (NO.2) LIMITED, priority 2015, published 2018)
# pIC50: −log10 of the molar value.
# Target: T1, EZH2 within the PRC2 complex (Homo sapiens, UniProt Q15910)
# T1 construct: FLAG; made in house; host or cells: Sf9 cells
# Assay: EZH2 methyltransferase scintillation proximity assay (SPA)
# Type: biochemical
# Conditions: Human PRC2 5 member complex (FLAG-EZH2, EED, SUZ12, RbAp48, AEBP2), biotinylated histone H3K27 peptide, 3H-SAM, 60 min room temperature; ≤10 nM approaches limit of detection
# Method: Compounds contained herein were evaluated for their ability to inhibit the methyltransferase activity of EZH2 within the PRC2 complex. Human PRC2 complex was prepared by co-expressing each of the 5 member proteins (FLAG-EZH2, EED, SUZ12, RbAp48, AEBP2) in Sf9 cells followed by co-purification. Enzyme activity was measured in a scintillation proximity assay (SPA) where a tritiated methyl group is transferred from 3H-SAM to a lysine residue on a biotinylated, unmethylated peptide substrate derived from histone H3. The peptides were captured on streptavidin-coated SPA beads and the resulting signal was read on a ViewLux plate reader.
# • 1. Prepare 10 mM stock of compounds from solid in 100% DMSO. • 2. Set up an 11-point serial dilution (1:4 dilution, top concentration 10 mM) in 100% DMSO for each test compound in a 384 well plate leaving columns 6 and 18 for DMSO controls. • 3. Dispense 10 nL of compound from the dilution plate into reaction plates (Corning, 384-well polystyrene NBS, Cat# 3673).
# • 1. 1× Base Buffer, 50 mM Tris-HCl, pH 8, 2 mM MgCl2: Per 1 L of base buffer, combine 1 M Tris-HCl, pH 8 (50 mL), 1 M MgCl2 (2 mL), and distilled water (948 mL). • 2. 1× Assay Buffer: Per 10 mL of 1× Assay Buffer, combine 1× Base Buffer (9.96 mL), 1 M DTT (40 uL), and 10% Tween-20 (1 uL) to provide a final concentration of 50 mM Tris-HCl, pH 8, 2 mM MgCl2, 4 mM DTT, 0.001% Tween-20. • 3. 2× Enzyme Solution: Per 10 mL of 2× Enzyme Solution, combine 1× Assay Buffer (9.99 mL) and 3.24 uM EZH2 5 member complex (6.17 uL) to provide a final enzyme concentration of 1 nM. • 4. SPA Bead Solution: Per 1 mL of SPA Bead Solution, combine Streptavidin coated SPA beads (PerkinElmer, Cat #RPNQ0261, 40 mg) and 1× Assay Buffer (1 mL) to provide a working concentration of 40 mg/mL. • 5. 2× Substrate Solution: Per 10 mL of 2× Substrate Solution, combine 40 mg/mL SPA Bead Solution (375 uL), 1 mM biotinylated histone H3K27 peptide (200 uL), 12.5 uM 3H-SAM (240 uL; 1 mCi/mL), 1 mM cold SAM (57 uL), and 1× Assay Buffer (9.13 mL) to provide a final concentration of 0.75 mg/mL SPA Bead Solution, 10 uM biotinylated histone H3K27 peptide, 0.15 uM 3H-SAM (˜12 uCi/mL 3H-SAM), and 2.85 uM cold SAM. • 6. 2.67× Quench Solution: Per 10 mL of 2.67× Quench Solution, combine 1 Assay Buffer (9.73 mL) and 10 mM cold SAM (267 uL) to provide a final concentration of 100 uM cold SAM.
# • 1. Stamp 10 nL/well of 1000× Compound to test wells (as noted above). • 2. Stamp 10 nL/well of 100% DMSO to columns 6 & 18 (high and low controls, respectively).
# • 1. Dispense 5 uL/well of 1× Assay Buffer to column 18 (low control reactions). • 2. Dispense 5 uL/well of 2× Substrate Solution to columns 1-24 (note: substrate solution should be mixed to ensure homogeneous bead suspension before dispensing into matrix reservoir). • 3. Dispense 5 uL/well of 2× Enzyme Solution to columns 1-17, 19-24. • 4. Incubate the reaction for 60 min at room temperature.
# • 1. Dispense 6 uL/well of the 2.67× Quench Solution to columns 1-24. • 2. Seal assay plates and spin for ˜1 min at 500 rpm. • 3. Dark adapt plates in the ViewLux instrument for 15-60 min. Read plates • 1. Read the assay plates on the Viewlux Plate Reader utilizing the 613 nm emission filter or clear filter (300 s exposure). • Reagent addition can be done manually or with automated liquid handler.
# Percent inhibition was calculated relative to the DMSO control for each compound concentration and the resulting values were fit using standard IC50 fitting parameters within the ABASE data fitting software package.
# T1 sequence (Q15910 whole entry): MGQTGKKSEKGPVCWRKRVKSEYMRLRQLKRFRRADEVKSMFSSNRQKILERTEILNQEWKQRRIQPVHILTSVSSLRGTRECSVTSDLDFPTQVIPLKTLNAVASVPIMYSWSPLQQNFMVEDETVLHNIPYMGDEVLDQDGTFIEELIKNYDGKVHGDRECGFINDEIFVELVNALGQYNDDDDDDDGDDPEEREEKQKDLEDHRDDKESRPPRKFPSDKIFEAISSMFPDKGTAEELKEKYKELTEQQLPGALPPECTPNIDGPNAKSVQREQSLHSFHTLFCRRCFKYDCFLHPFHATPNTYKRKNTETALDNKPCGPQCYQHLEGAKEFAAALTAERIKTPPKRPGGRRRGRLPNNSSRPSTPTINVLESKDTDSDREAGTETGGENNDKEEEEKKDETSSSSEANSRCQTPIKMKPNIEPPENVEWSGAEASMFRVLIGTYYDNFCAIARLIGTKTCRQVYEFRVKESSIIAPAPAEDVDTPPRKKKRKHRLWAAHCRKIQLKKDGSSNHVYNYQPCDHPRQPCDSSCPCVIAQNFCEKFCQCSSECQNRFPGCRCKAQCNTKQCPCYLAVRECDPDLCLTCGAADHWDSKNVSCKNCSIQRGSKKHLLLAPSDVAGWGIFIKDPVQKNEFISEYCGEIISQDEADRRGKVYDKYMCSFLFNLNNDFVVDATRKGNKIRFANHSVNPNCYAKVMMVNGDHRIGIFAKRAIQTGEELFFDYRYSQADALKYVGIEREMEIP
# T1 sequence (O75530 whole entry partner): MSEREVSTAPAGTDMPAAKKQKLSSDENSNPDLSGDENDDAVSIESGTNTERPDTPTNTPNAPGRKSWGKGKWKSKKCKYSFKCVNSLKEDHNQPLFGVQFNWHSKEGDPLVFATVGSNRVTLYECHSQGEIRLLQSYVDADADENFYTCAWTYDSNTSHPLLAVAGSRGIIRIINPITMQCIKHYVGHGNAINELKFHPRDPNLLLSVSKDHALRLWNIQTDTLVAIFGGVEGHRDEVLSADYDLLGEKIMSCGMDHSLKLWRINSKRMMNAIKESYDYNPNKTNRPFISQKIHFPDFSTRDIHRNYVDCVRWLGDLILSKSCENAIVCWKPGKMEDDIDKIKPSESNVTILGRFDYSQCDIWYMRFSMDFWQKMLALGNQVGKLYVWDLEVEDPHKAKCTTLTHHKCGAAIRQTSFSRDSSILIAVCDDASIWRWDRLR
# T1 sequence (Q15022 whole entry partner): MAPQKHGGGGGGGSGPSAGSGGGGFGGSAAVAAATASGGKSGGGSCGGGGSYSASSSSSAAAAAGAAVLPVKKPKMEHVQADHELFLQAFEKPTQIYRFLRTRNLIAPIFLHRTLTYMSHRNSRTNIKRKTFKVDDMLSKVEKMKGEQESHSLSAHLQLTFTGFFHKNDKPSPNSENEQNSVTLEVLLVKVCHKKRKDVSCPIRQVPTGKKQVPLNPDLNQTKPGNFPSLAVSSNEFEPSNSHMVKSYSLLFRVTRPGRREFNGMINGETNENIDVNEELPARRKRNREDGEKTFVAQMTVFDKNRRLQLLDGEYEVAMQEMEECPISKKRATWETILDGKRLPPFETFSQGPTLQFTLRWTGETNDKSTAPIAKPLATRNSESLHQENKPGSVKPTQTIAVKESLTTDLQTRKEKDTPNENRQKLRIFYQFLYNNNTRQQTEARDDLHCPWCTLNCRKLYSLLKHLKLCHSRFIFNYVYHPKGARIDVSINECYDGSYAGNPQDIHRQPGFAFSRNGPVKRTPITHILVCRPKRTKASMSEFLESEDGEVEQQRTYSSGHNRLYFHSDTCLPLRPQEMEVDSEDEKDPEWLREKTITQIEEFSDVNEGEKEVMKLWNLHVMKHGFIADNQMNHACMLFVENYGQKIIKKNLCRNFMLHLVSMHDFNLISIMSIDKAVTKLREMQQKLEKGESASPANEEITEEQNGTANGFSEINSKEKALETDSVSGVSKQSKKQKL
# T1 sequence (Q09028 whole entry partner): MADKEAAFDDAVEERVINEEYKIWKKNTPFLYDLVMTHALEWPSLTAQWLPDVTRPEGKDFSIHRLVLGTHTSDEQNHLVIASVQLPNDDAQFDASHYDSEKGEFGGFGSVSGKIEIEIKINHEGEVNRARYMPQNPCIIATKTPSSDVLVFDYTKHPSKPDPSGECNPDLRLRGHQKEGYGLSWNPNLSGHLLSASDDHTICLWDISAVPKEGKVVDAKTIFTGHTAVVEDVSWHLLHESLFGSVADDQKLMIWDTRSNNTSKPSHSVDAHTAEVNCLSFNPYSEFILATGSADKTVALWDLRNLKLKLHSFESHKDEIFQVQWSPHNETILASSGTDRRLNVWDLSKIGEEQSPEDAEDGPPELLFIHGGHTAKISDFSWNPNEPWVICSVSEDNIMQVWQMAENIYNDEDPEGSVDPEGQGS
# T1 sequence (Q6ZN18 whole entry partner): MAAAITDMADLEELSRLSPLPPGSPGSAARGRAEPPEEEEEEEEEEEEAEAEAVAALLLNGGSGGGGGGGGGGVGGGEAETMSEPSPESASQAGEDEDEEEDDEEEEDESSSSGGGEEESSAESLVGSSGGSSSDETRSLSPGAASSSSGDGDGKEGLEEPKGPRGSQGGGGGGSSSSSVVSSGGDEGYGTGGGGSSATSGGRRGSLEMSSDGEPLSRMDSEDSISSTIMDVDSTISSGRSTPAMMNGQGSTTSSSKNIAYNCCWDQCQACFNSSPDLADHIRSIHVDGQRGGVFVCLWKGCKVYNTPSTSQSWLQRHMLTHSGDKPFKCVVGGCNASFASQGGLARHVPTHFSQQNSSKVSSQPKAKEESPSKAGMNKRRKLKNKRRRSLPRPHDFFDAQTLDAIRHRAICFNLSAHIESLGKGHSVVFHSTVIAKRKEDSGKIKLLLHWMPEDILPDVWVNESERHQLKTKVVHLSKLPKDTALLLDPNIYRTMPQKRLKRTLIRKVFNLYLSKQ
row,Structure (SMILES),pIC50
1,"CCC(=C1CCN(Cc2ccnc(OC)c2)CC1)c1scc(C(=O)NCc2c(C)cc(C)[nH]c2=O)c1C [Example 5, N-((4,6-Dimethyl-2-oxo-1,2-dihydropyridin-3-yl)methyl)-5-(1-(1-((2-methoxypyridin-4-yl)methyl)piperidin-4-ylidene)propyl)-4-methylthiophene-3-carboxamide]",≥ 8.00
2,"CC[C@@H](c1sc2c(c1C)C(=O)N(Cc1c(C)cc(C)[nH]c1=O)CC2)C1CCN(Cc2ccncc2)CC1 [Example 3, (R)-5-((4,6-Dimethyl-2-oxo-1,2-dihydropyridin-3-yl)methyl)-3-methyl-2-(1-(1-(pyridin-4-ylmethyl)piperidin-4-yl)propyl)-6,7-dihydrothieno[3,2-c]pyridin-4(5H)-one]",≥ 8.00
3,"CC[C@@H](c1sc2c(c1C)C(=O)N(Cc1c(C)cc(C)[nH]c1=O)CC2)C1CCN(Cc2ccccn2)CC1 [Example 1, (R)-5-((4,6-dimethyl-2-oxo-1,2-dihydropyridin-3-yl)methyl)-3-methyl-2-(1-(1-(pyridin-2-ylmethyl)piperidin-4-yl)propyl)-6,7-dihydrothieno[3,2-c]pyridin-4(5H)-one]",≥ 8.00
4,"CC[C@@H](c1sc2c(c1C)C(=O)N(Cc1c(C)cc(C)[nH]c1=O)CC2)C1CCN(Cc2ccccc2)CC1 [Example 2, (R)-2-(1-(1-Benzylpiperidin-4-yl)propyl)-5-((4,6-dimethyl-2-oxo-1,2-dihydropyridin-3-yl)methyl)-3-methyl-6,7-dihydrothieno[3,2-c]pyridin-4(5H)-one]",≥ 8.00
5,"Cc1cccc(CN2CCC([C@@H](C)c3sc4c(c3C)C(=O)N(Cc3c(C)cc(C)[nH]c3=O)CCC4)CC2)n1 [Example 9, (R)-5-((4,6-Dimethyl-2-oxo-1,2-dihydropyridin-3-yl)methyl)-3-methyl-2-(1-(1-((6-methylpyridin-2-yl)methyl)piperidin-4-yl)ethyl)-5,6,7,8-tetrahydro-4H-thieno[3,2-c]azepin-4-one]",≥ 8.00
6,"COc1cc(CN2CCC([C@@H](C)c3sc4c(c3C)C(=O)N(Cc3c(C)cc(C)[nH]c3=O)CCC4)CC2)ccn1 [Example 7, (R)-5-((4,6-Dimethyl-2-oxo-1,2-dihydropyridin-3-yl)methyl)-2-(1-(1-((2-methoxypyridin-4-yl)methyl)piperidin-4-yl)ethyl)-3-methyl-5,6,7,8-tetrahydro-4H-thieno[3,2-c]azepin-4-one]",≥ 8.00
7,"Cc1cc(C)c(CN2CCCc3sc([C@H](C)C4CCN(CC5(C)CCCCC5)CC4)c(C)c3C2=O)c(=O)[nH]1 [Example 14, (R)-5-((4,6-Dimethyl-2-oxo-1,2-dihydropyridin-3-yl)methyl)-3-methyl-2-(1-(1-((1-methylcyclohexyl)methyl)piperidin-4-yl)ethyl)-5,6,7,8-tetrahydro-4H-thieno[3,2-c]azepin-4-one]",≥ 8.00
8,"Cc1cc(C)c(CN2CCCc3sc([C@H](C)C4CCN(Cc5ccccn5)CC4)c(C)c3C2=O)c(=O)[nH]1 [Example 6, (R)-5-((4,6-Dimethyl-2-oxo-1,2-dihydropyridin-3-yl)methyl)-3-methyl-2-(1-(1-(pyridin-2-ylmethyl)piperidin-4-yl)ethyl)-5,6,7,8-tetrahydro-4H-thieno[3,2-c]azepin-4-one]",≥ 8.00
9,"COc1cccc(CN2CCC([C@@H](C)c3sc4c(c3C)C(=O)N(Cc3c(C)cc(C)[nH]c3=O)CCC4)CC2)n1 [Example 12, (R)-5-((4,6-Dimethyl-2-oxo-1,2-dihydropyridin-3-yl)methyl)-2-(1-(1-((6-methoxypyridin-2-yl)methyl)piperidin-4-yl)ethyl)-3-methyl-5,6,7,8-tetrahydro-4H-thieno[3,2-c]azepin-4-one]",≥ 8.00
10,"Cc1cc(C)c(CN2CCCc3sc([C@H](C)C4CCN(CC5CCCCC5)CC4)c(C)c3C2=O)c(=O)[nH]1 [Example 13, (R)-2-(1-(1-(cyclohexylmethyl)piperidin-4-yl)ethyl)-5-((4,6-dimethyl-2-oxo-1,2-dihydropyridin-3-yl)methyl)-3-methyl-5,6,7,8-tetrahydro-4H-thieno[3,2-c]azepin-4-one]",≥ 8.00
11,"COc1cc(CN2CCC([C@@H](C)c3sc4c(c3C)C(=O)N(Cc3c(C)cc(C)[nH]c3=O)CC4)CC2)ccn1 [Example 11, (R)-5-((4,6-Dimethyl-2-oxo-1,2-dihydropyridin-3-yl)methyl)-2-(1-(1-((2-methoxypyridin-4-yl)methyl)piperidin-4-yl)ethyl)-3-methyl-6,7-dihydrothieno[3,2-c]pyridin-4(5H)-one]",≥ 8.00
12,"CC[C@@H](c1sc2c(c1C)C(=O)N(Cc1c(C)cc(C)[nH]c1=O)CC2)C1CCN(Cc2ccc(Cl)cn2)CC1 [Example 4, (R)-2-(1-(1-((5-Chloropyridin-2-yl)methyl)piperidin-4-yl)propyl)-5-((4,6-dimethyl-2-oxo-1,2-dihydropyridin-3-yl)methyl)-3-methyl-6,7-dihydrothieno[3,2-c]pyridin-4(5H)-one]",≥ 8.00
13,Cc1cc(C)c(CN2CCCc3sc([C@H](C)C4CCN(Cc5ccc(Cl)cn5)CC4)c(C)c3C2=O)c(=O)[nH]1 [Example 8],≥ 8.00
14,"Cc1cc(C)c(CN2CCCc3sc([C@H](C)C4CCN(Cc5ccccc5)CC4)c(C)c3C2=O)c(=O)[nH]1 [Example 10, (R)-2-(1-(1-Benzylpiperidin-4-yl)ethyl)-5-((4,6-dimethyl-2-oxo-1,2-dihydropyridin-3-yl)methyl)-3-methyl-5,6,7,8-tetrahydro-4H-thieno[3,2-c]azepin-4-one]",≥ 8.00
